Read-outs that look alike come from different tables or passages of the source.

The subject of data set [1] is sulprostone-induced allodynic mice. The data set is described as follows: Sulprostone-induced allodynia mouse model, paint brush stimulation pain score.
Data set [2] deals with intraocular pressure of male New Zealand rabbits. The data set is described as follows: Normotensive intraocular pressure in rabbits after topical instillation (pneumatonometer). The class given is in vivo, rabbit. Here is the method: Male New Zealand rabbits are used to evaluate drug effects on normotensive IOP measurements. The rabbits are carefully handled so as to minimize excitement. They should be picked up by the nape of the neck, with their hindlegs supported by the other hand. After removing the rabbit from its cage, approximately 25 ul of dilute OphtheticR (0.05%) topical anesthesia is administered to each eye. An initial IOP determination is made in both eyes. Rabbits with 3 mmHg or greater difference in IOP between right and left eyes are replaced at this time.
Immediately following the time zero (T=0) reading in both eyes, one eye of each experimental rabbit is instilled with an ophthalmic formulation of 0.1% (w/w) brimonidine tartrate onto the cornea of the randomly selected test eye. […] The other eye is given the vehicle containing no drug. The ophthalmic formulations comprise 50 ppm Purite®(stabilized chlorine dioxide), 0.5% carboxymethylcellulose, 0.6% (w/w) borate buffer (pH 7.7) and small amounts of salts (NaCl, KCl, CaCl2, MgCl2). Intraocular pressure of both treated (ipsalateral)and untreated (contralateral) eyes is measured at the indicated time intervals for seven hours. Pressure readings utilize a Model 30 Classic™ Pneumatonometer as the measuring and recording instrument. It measures intraocular pressure (IOP) non-invasively through applanation tonometry.

In data set [3] the test system is Chung model of allodynic rats. Particulars: for analgesia (reversal of tactile allodynia): 30 minutes after administration. The text has this:
A model for chronic pain (in particular peripheral neuropathy) involves the surgical ligation of the L5 (and optionally the L6) spinal nerves on one side in experimental animals. Rats recovering from the surgery gain weight and display a level of general activity similar to that of normal rats. However, these rats develop abnormalities of the foot, wherein the hindpaw is moderately everted and the toes are held together. More importantly, the hindpaw on the side affected by the surgery appears to become sensitive to pain from low-threshold mechanical stimuli, such as that producing a faint sensation of touch in a human, within about 1 week following surgery. This sensitivity to normally non-painful touch is called “tactile allodynia” and lasts for at least two months. The response includes lifting the affected hindpaw to escape from the stimulus, licking the paw and holding it in the air for many seconds. None of these responses is normally seen in the control group.
Rats are anesthetized before surgery. The surgical site is shaved and prepared either with betadine or novacaine. Incision is made from the thoracic vertebra X111 down toward the sacrum. Muscle tissue is separated from the spinal vertebra (left side) at the L4-S2 levels. The L6 vertebra is located and the transverse process is carefully removed with a small rongeur to expose the L4-L6 spinal nerves. The L5 and L6 spinal nerves are isolated and tightly ligated with 6-0 silk thread. The same procedure is done on the right side as a control, except no ligation of the spinal nerves is performed.
A complete hemostasis is confirmed, then the wounds are sutured. A small amount of antibiotic ointment is applied to the incised area, and the rat is transferred to the recovery plastic cage under a regulated heat-temperature lamp. […]
In the Chung rat model, tactile allodynia is measured prior to and 30 minutes after drug administration using von Frey hairs that are a series of fine hairs with incremental differences in stiffness. […]

The next data set deals with male Sprague-Dawley rats. The settings on record: for sedation: graded 30 minutes after administration. How it is done:
To test sedation, six male Sprague-Dawley rats are given various doses of a clonidine intrathecal injection. Sedation is graded 30 minutes following administration of the drug by monitoring locomotor skills as follows. Rats are placed in a dark covered chamber and a digicom analyzer (Omnitech Electronic) quantitates their exploratory behavior for a five-minute period. The machine records each time the rat interrupts an array of 32 photoelectric beams in the X and Y orientation, and quantifies the difference in behavior as compared to control animals given saline instead of clonidine.

`CN(C)CCC=C1c2ccccc2CCc2ccccc21` [amitriplylene, amitriptylene]: the “reduction in the dosage necessary to achieve maximal analgesia” value in data set [1] (amitriptylene intrathecal with 30 ug/kg IP 5-methylurapadil versus with saline) is listed as “approximately three”.
`Brc1c(NC2=NCCN2)ccc2nccnc12` [brimonidine]: the intraocular pressure entry in data set [2] (0.1% brimonidine alone (FIG. 4B)) was “pronounced increase in intraocular pressure within the first 30 minutes, followed by a lowering of intraocular pressure thereafter”. In data set [2] (0.1% brimonidine and 0.001% prazosin (FIG. 4C)), the “intraocular pressure, difference from brimonidine alone” value is “Little difference”. The initial intraocular pressure entry in data set [2] (0.1% brimonidine and 0.003% prazosine (FIG. 4D)) is reported as “only a very small increase in initial intraocular pressure”.
Turning to `Clc1cccc(Cl)c1N=C1NCCN1` [clonidine], the “analgesia (reversal of tactile allodynia)” value in data set [3] (intrathecal dose of 0.1 μg) is recorded as “no analgesia”; in data set [3] (intrathecal dose of 1.0 μg) it was “maximal analgesia”. The “analgesic activity, dose-dependent” value is on record as “analgesic” in data set [3] (rats, intrathecal) and “analgesic” in data set [1] (mice, intrathecal). The “shift of the effective analgesic dose lower versus clonidine alone” value in data set [1] (5-methyl urapidil 30 μg/kg intraperitoneal 5 minutes before clonidine) amounted to 10 fold. The pain score in data set [1] (clonidine 0.03 microgram intrathecal, prazosin given 15 minutes before) was 13.3±0.9; in data set [1] (clonidine 0.1 microgram intrathecal, prazosin given 15 minutes before) it was 4.8±0.8; in data set [1] (clonidine 0.4 microgram intrathecal, prazosin given 15 minutes before), 4.8±0.6. Further, the analgesia result in data set [1] (clonidine 0.1 microgram intrathecal in the absence of prazosin) was “not analgesic”. Besides, the “analgesia compared with intraperitoneal injection of the alpha 1 antagonist” value in data set [1] (clonidine (various doses) and 5-methylurapidil 1 microgram coadministered intrathecally) is “substantially similar”. Besides, the results for the “therapeutic window between pain and sedation” value in data set [1] (clonidine alone) and in data set [1] (clonidine co-administered with alpha 1 antagonist (5-methyl urapidil 30 μg/kg i.p.)) were 3-10 fold and 30-100 fold, respectively. For the same compound, the “decrease in the EC50 for clonidine analgesia versus i.t. clonidine alone” value in data set [1] (coadministration of prazosin 100 ng/kg i.p.) is given as “four”. Also, the values for the sedation result with male Sprague-Dawley rats (intrathecal dose of 3.0 μg) and with male Sprague-Dawley rats (intrathecal dose of 10 μg) were “mildly sedating” and “maximal sedation”, respectively. The “separation between analgesia and sedation” value in the data set on male Sprague-Dawley rats (rats, intrathecal clonidine alone) was 3-10 fold.
With `COc1cc2nc(N3CCN(C(=O)c4ccco4)CC3)nc(N)c2cc1OC` [prazosin], the “intraocular pressure of treated eye compared to untreated eye” value in data set [2] (35 microliters 0.003% prazosin alone (FIG. 4A)) is listed as “small initial drop in intraocular pressure compared to the untreated eye, followed by a gradual increase in pressure”.
Turning to `CS(=O)(=O)NC(=O)CCC/C=C\C[C@H]1C(=O)C[C@@H](O)[C@@H]1/C=C/[C@@H](O)COc1ccccc1` [sulprostone], the pain score in data set [1] (sulprostone 200 ng intrathecal alone, 16-point scale) is recorded as 12-13.

The values above are taken from patent publication US20050058696A1, “Methods and compositions for the treatment of pain and other alpha 2 adrenergic-mediated conditions” (Allergan, Inc., priority 2003, published 2005).
